This passage reports chromatographic logP results from patent publication US11479565B2, “Process for preparing substituted imidazole derivatives” (BAYER AKTIENGESELLSCHAFT, priority 2018, dated 2022).

The nature of series [1]: log P[a] by HPLC on reversed-phase column (C18), LC-UV in the acidic range. The series is classed as physicochemical. As to conditions: 0.9 ml/l formic acid in water and 1.0 ml/l formic acid in acetonitrile, gradient 10% to 95% acetonitrile, EEC Directive 79/831 Annex V.A8. Here is the method:
(§1) The log values were determined according to EEC Directive 79/831 Annex V.A8 by HPLC (high-performance liquid chromatography) on a reversed-phase column (C18) using the following methods: The log P[a] value is determined by LC-UV measurement in the acidic range using 0.9 mill formic acid in water and 1.0 ml/l formic acid in acetonitrile as mobile phases (linear gradient from 10% acetonitrile to 95% acetonitrile). Calibration was carried out using a homologous series of straight-chain alkan-2-ones (having 3 to 16 carbon atoms) with known log values. The values between successive alkanones are determined by linear regression.

Series [2] is described as follows: log P[n] by HPLC on reversed-phase column (C18), LC-UV in the neutral range. It is filed as physicochemical. As to conditions: 79 mg/l ammonium carbonate in water and acetonitrile, gradient 10% to 95% acetonitrile, EEC Directive 79/831 Annex V.A8. As for the experimental part:
as §1, with “P[n]” for “P[a]”, “neutral” for “acidic”, “79 mg/l ammonium carbonate” for “0.9 mill formic acid”, “and” for “and 1.0 ml/l formic acid in”

Usually chromatographic logP stands for a lipophilicity value derived from retention on a column. As for `CCSc1c(-c2nc3cc(C(F)(F)F)nnc3n2C)nc(Br)n1C` [Example 1, 6-[2-bromo-5-(ethylsulfanyl)-1-methyl-1H-imidazol-4-yl]-7-methyl-3-(trifluoromethyl)-7H-imidazo[4,5-]pyridazine], the chromatographic logP worked out at 3.14 in series [1] and 3.01 in series [2].

Consider `CCSc1c(-c2nc3cc(C(F)(F)C(F)(F)F)nnc3n2C)nc(Br)n1C` [Example 2, 6-[2-bromo-5-(ethylsulfanyl)-1-methyl-1H-imidazol-4-yl]-7-methyl-3-(pentafluoroethyl)-7H-imidazo[4,5-c]pyridazine], for which the results for the chromatographic logP in series [1] and in series [2] were 3.8 and 3.66, respectively.

As for `CCS(=O)(=O)c1c(-c2nc3cc(C(F)(F)C(F)(F)F)nnc3n2C)nc(Br)n1C` [Example 3, 6-[2-bromo-5-(ethylsulfonyl)-1-methyl-1H-imidazol-4-yl]-7-methyl-3-(pentafluoroethyl)-7H-imidazo[4,5-c]pyridazine], the chromatographic logP in series [1] was 2.8; in series [2], 2.76.

Turning to `CCSc1c(-c2nc3cc(C(F)(F)C(F)(F)F)ncc3n2C)nc(Br)n1C` [Example 4, 2-[2-bromo-5-(ethylsulfanyl)-1-methyl-1H-imidazol-4-yl]-3-methyl-6-(pentafluoroethyl)-3H-imidazo[4,5-c]pyridine], the chromatographic logP amounted to 3.63 in series [1] and 3.51 in series [2].

As to `CCSc1c(-c2nc3cc(C(F)(F)C(F)(F)F)nnc3n2C)nc(-c2ccc(Cl)nn2)n1C` [Example 5, 6-[2-(6-chloropyridazin-3-yl)-5-(ethylsulfanyl)-1-methyl-1H-imidazol-4-yl]-7-methyl-3-(pentafluoroethyl)-7H-imidazo[4,5-c]pyridazine], the figures for the chromatographic logP in series [1] and in series [2] were 4.13 and 4.01, respectively.

With `CCSc1c(-c2nc3cc(C(F)(F)C(F)(F)F)nnc3n2C)nc(-c2ccc(C#N)cn2)n1C` [Example 6, 6-{5-(ethylsulfanyl)-1-methyl-4-[7-methyl-3-(pentafluoroethyl)-7H-imidazo[4,5-c]pyridazin-6-yl]-1H-imidazol-2-yl}nicotinonitrile], the chromatographic logP in series [1] came to 4.32; in series [2] it was 4.2.
